Structures are written as SMILES. Structures can show the parent of a compound that is named as a salt.

A short description of the data set: collision cross section in nitrogen (drift tube, single-field); higher = larger gas-phase ion size.
Where [1] appears, read: ion source: ESI, ion mode: Positive, ion type: [M]+ (permanent cation).
Setting [2] is: ion type: [M+Na], ion source: ESI, ion mode: Positive.
[3] abbreviates: ion type: [M+H], ion source: APCI, ion mode: Positive.
Where [4] appears, read: ion type: [M+H], ion source: ESI, ion mode: Positive.
Setting [5] is: ion type: [M+], ion source: APCI, ion mode: Positive.
Where [6] appears, read: ion type: [M-H], ion source: ESI, ion mode: Negative.
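Further: chemical standards at 10 µM analysed by drift tube IMS-QTOF MS in about 3.95 torr nitrogen, mean of duplicate injections differing ≤1%, mass error below 10 ppm.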

Consider `CC[N+](CC)(CC)CC` [Tetraethylammonium bromide], for which, under setting [1], the “collision cross section in nitrogen” value was 125.7 Å². Turning to `CCCCC(CC)COC(=O)CCCCC(=O)OCC(CC)CCCC` (stereo not drawn) [Bis(2-ethylhexyl)hexanedioate], under setting [2], the “collision cross section in nitrogen” value amounted to 216.5 Å². As for `CCCCCCCCCc1ccc(OCCOCCO)cc1` [Igepal CO-210], the “collision cross section in nitrogen” value under setting [2] is 191.3 Å². Turning to `CC(=O)OCCOCCOCCOC(C)=O` [Triethylene glycol diacetate], under setting [2], the “collision cross section in nitrogen” value came out at 151.3 Å².

As for `CC(C)c1c(C(=O)Nc2ccccc2)c(-c2ccccc2)c(-c2ccc(F)cc2)n1CC[C@@H](O)C[C@@H](O)CC(=O)O` [Atorvastatin calcium], the “collision cross section in nitrogen” value came out at 229.8 Å² under setting [3]; 230.3 Å² under setting [4]; 232.2 Å² under setting [2]; 224.3 Å² under setting [5]; 228.6 Å² under setting [6]. Turning to `CCCCCCCCCCCCOC(=O)c1cc(O)c(O)c(O)c1` [Lauryl gallate], the “collision cross section in nitrogen” value under setting [6] is on record as 183.1 Å². With `N[C@H](Cc1c[nH]c2ccccc12)C(=O)O` [d-Tryptophan], the “collision cross section in nitrogen” value under setting [6] is reported as 151.5 Å². For `NCC1(Cc2noc(=O)[nH]2)CCCCC1`, the “collision cross section in nitrogen” value under setting [4] was 154 Å² and the “collision cross section in nitrogen” value under setting [6] is 151.4 Å². With `O=C(O)c1cccnc1` [Sodium nicotinate], the “collision cross section in nitrogen” value under setting [3] came to 123.5 Å² and the “collision cross section in nitrogen” value under setting [4] was 124.5 Å². For `CCCCCC/C=C\CCCCCCCC(=O)O` [(Z)-Hexadec-9-enoic acid], the “collision cross section in nitrogen” value under setting [6] is reported as 168.4 Å². Regarding `Fc1ccccc1[C@@H](F)CO[C@H]1CC[C@H](Nc2[nH]cnc3nncc2-3)CC1` [MK-968], the “collision cross section in nitrogen” value was 187.8 Å² under setting [3], 187.7 Å² under setting [4], 191.4 Å² under setting [2] and 198.9 Å² under setting [6].

Turning to `CC(=O)OC/C=C(\C)CCC=C(C)C` [Geranyl acetate], under setting [6], the “collision cross section in nitrogen” value is given as 151.5 Å². Take `CCCCSP(=O)(SCCCC)SCCCC` [Tribufos]: the “collision cross section in nitrogen” value is, setting by setting: under setting [3], 177.5 Å²; under setting [4], 177.2 Å²; under setting [2], 194.4 Å². Turning to `C(COCC1CO1)OCC1CO1` (stereo not drawn) [Ethylene glycol diglycidyl ether], the “collision cross section in nitrogen” value under setting [2] turned out to be 135.8 Å².

In the case of `CCCCCC(C)OC(=O)COc1ccc(Cl)c2cccnc12` (stereo not drawn) [Cloquintocet-mexyl], the “collision cross section in nitrogen” value under setting [3] is 182.1 Å², the “collision cross section in nitrogen” value under setting [4] amounted to 181.9 Å² and the “collision cross section in nitrogen” value under setting [2] turned out to be 195.1 Å². On to `COc1cc(S(=O)(=O)Nc2ccccc2)c(OC)cc1N` [4-Amino-2,5-dimethoxy-N-phenylbenzenesulfonamide], for which the “collision cross section in nitrogen” value came to 180.5 Å² under setting [2], 167.2 Å² under setting [5] and 169 Å² under setting [6]. Take `CCC(CC)Nc1c([N+](=O)[O-])cc(C)c(C)c1[N+](=O)[O-]` [Pendimethalin]: the “collision cross section in nitrogen” value under setting [6] is on record as 163.7 Å².

Take `Cc1cc(O)ccc1Cl` [4-Chloro-3-methylphenol]: the “collision cross section in nitrogen” value under setting [6] turned out to be 125.9 Å². For the compound `CCn1nc(C)c2c1C(=O)NCC(c1ccc(O)cc1)=N2`, the “collision cross section in nitrogen” value under setting [3] amounted to 170.8 Å², the “collision cross section in nitrogen” value under setting [4] was found to be 170.3 Å² and the “collision cross section in nitrogen” value under setting [6] was determined as 172.9 Å². Consider `CCOC(=O)c1ccc(N(C)C)cc1` [Parbenate], for which the “collision cross section in nitrogen” value runs as follows: under setting [3], 149.3 Å²; under setting [4], 149.6 Å². On to `CNC(=O)ON=C(SC)C(=O)N(C)C` [Oxamyl], for which the “collision cross section in nitrogen” value under setting [2] came to 150.9 Å².

In the case of `C#CCOS(=O)OC1CCCCC1Oc1ccc(C(C)(C)C)cc1` (stereo not drawn) [Propargite], under setting [2], the “collision cross section in nitrogen” value came to 186.9 Å². Consider `Cc1[nH]c(=O)n(C(C)(C)C)c(=O)c1Cl` [Terbacil], for which the “collision cross section in nitrogen” value under setting [6] was determined as 144.9 Å². For the compound `O=C(Nc1ccc2c(c1)Cc1ccccc1-2)C(F)(F)F` [N-(2-Fluorenyl)-2,2,2-trifluoroacetamide], the “collision cross section in nitrogen” value came out at 156.6 Å² under setting [5] and 160.4 Å² under setting [6]. Take `O=C(Nc1cccc([N+](=O)[O-])c1)c1cc2ccccc2cc1O` [3-Hydroxy-N-(3-nitrophenyl)naphthalene-2-carboxamide]: the “collision cross section in nitrogen” value under setting [6] is 170.2 Å². `O=C(NCc1ncc(C(F)(F)F)cc1Cl)c1c(Cl)cccc1Cl` [Fluopicolide]: the “collision cross section in nitrogen” value under setting [4] came to 175.4 Å² and the “collision cross section in nitrogen” value under setting [2] is 187 Å². In the case of `CNC(=N[N+](=O)[O-])NCC1CCOC1` (stereo not drawn) [1-Methyl-2-nitro-3-((tetrahydrofuran-3-yl)methyl)guanidine], the “collision cross section in nitrogen” value is recorded as 150.6 Å² under setting [2] and 148.7 Å² under setting [6]. Take `C=CS(=O)(=O)O` [Sodium ethenesulfonate]: the “collision cross section in nitrogen” value under setting [6] worked out at 113.6 Å². For `Nc1cc(Cl)c(N)c(Cl)c1` [2,6-Dichloro-1,4-benzenediamine], the “collision cross section in nitrogen” value reads like this: under setting [4], 135.5 Å²; under setting [5], 128.1 Å². `CC1(C)OC[C@@H]2O[C@@]3(C(=O)O)OC(C)(C)O[C@H]3[C@@H]2O1` [Diprogulic acid]: the “collision cross section in nitrogen” value under setting [2] was 160.6 Å² and the “collision cross section in nitrogen” value under setting [6] came out at 162.8 Å². With `O=S(=O)(O)C(F)(F)C(F)(F)C(F)(F)C(F)(F)C(F)(F)C(F)(F)C(F)(F)C(F)(F)F` [Lithium perfluorooctanesulfonate], the “collision cross section in nitrogen” value under setting [6] turned out to be 168.3 Å².

On to `O=[N+]([O-])c1cc[n+]([O-])cc1` [4-Nitropyridine-1-oxide], for which the “collision cross section in nitrogen” value under setting [6] worked out at 119.2 Å². Consider `O=C(O)CCCCCCCCCC(=O)O` [Undecanedioic acid], for which the “collision cross section in nitrogen” value under setting [6] was determined as 149 Å². In the case of `CN(CCO)CC(O)Cn1cnc2c1c(=O)n(C)c(=O)n2C` (stereo not drawn) [Xanthinol niacinate], the “collision cross section in nitrogen” value is given as 171.8 Å² under setting [3], 171.7 Å² under setting [4] and 175.7 Å² under setting [2].

Consider `CNCc1ccc(NC(=O)c2c[nH]c3c2C(=O)CCC3)cc1`, for which the “collision cross section in nitrogen” value under setting [2] is given as 182.6 Å² and the “collision cross section in nitrogen” value under setting [6] is 178.1 Å². Regarding `CC(=O)O[C@H](CC(=O)[O-])C[N+](C)(C)C` [Acetyl-L-carnitine hydrochloride], the “collision cross section in nitrogen” value under setting [4] is 143.9 Å². Regarding `C=CC(=O)N1CN(C(=O)C=C)CN(C(=O)C=C)C1` [Hexahydro-1,3,5-tris(1-oxoallyl)-1,3,5-triazine], the “collision cross section in nitrogen” value under setting [2] was found to be 160.1 Å². For `O=S(=O)(O)c1ccccc1C=Cc1ccc(-c2ccc(C=Cc3ccccc3S(=O)(=O)O)cc2)cc1` [Disodium 4,4'-bis(2-sulfostyryl)biphenyl], the “collision cross section in nitrogen” value under setting [6] was determined as 248.5 Å². Regarding `Nc1ccc2c(O)cc(S(=O)(=O)O)cc2c1` [7-Amino-4-hydroxynaphthalene-2-sulfonic acid], under setting [6], the “collision cross section in nitrogen” value was 153.3 Å². As for `CN(C)c1ccc(/N=N/c2ccccc2C(=O)O)cc1` [Methyl red], the “collision cross section in nitrogen” value under setting [3] is 163.1 Å², the “collision cross section in nitrogen” value under setting [4] came out at 163 Å², the “collision cross section in nitrogen” value under setting [2] is 179.2 Å² and the “collision cross section in nitrogen” value under setting [6] came to 175.2 Å².

For the compound `CCCCCCCC/C=C\CCCCCCCC(=O)N(C)CC(=O)O` [Oleyl sarcosine], the “collision cross section in nitrogen” value is 200.7 Å² under setting [3], 200.6 Å² under setting [4], 196 Å² under setting [2] and 191.2 Å² under setting [6].

With `CCCCCCCC[N+](C)(C)Cc1ccccc1` [Benzalkonium chloride C8 (BAC C8)], the “collision cross section in nitrogen” value reads like this: (ion source: APCI, ion mode: Positive, ion type: [M]+ (permanent cation)) 170.1 Å²; under setting [1], 171.3 Å². Regarding `CC(C)(C)c1ccc(O)cc1` [4-(1,1-Dimethylethyl)phenol], under setting [6], the “collision cross section in nitrogen” value is given as 139.5 Å². In the case of `O=C(O)CC(C(=O)O)S(=O)(=O)O` (stereo not drawn) [Sulfosuccinic acid], the “collision cross section in nitrogen” value under setting [6] came out at 124.5 Å². For `CC(C)Oc1ccc(S(=O)(=O)c2ccc(O)cc2)cc1` [4-((4-Isopropoxyphenyl)sulfonyl)phenol], the “collision cross section in nitrogen” value is, setting by setting: under setting [3], 180.9 Å²; under setting [4], 171.8 Å²; under setting [2], 187.9 Å²; under setting [6], 174.8 Å². `Cc1cc(C)nc(Nc2ccccc2)n1` [Pyrimethanil]: the “collision cross section in nitrogen” value under setting [3] amounted to 143.4 Å² and the “collision cross section in nitrogen” value under setting [4] is given as 143.8 Å².

As for `CC1=NN(c2ccc(S(=O)(=O)O)cc2)C(=O)C1N=Nc1ccccc1` (stereo not drawn) [C.I. Acid Yellow 11, sodium salt], the “collision cross section in nitrogen” value under setting [6] is 199.2 Å². Take `COc1ccc([C@@H]2CC(=O)c3c(O)cc(O[C@@H]4O[C@H](CO[C@@H]5O[C@@H](C)[C@H](O)[C@@H](O)[C@H]5O)[C@@H](O)[C@H](O)[C@H]4O)cc3O2)cc1OC` [Methyl hesperidin]: the “collision cross section in nitrogen” value reads like this: under setting [2], 232.5 Å²; under setting [6], 245.2 Å².

On to `CCOC(=O)NCCOc1ccc(Oc2ccccc2)cc1` [Fenoxycarb], for which the “collision cross section in nitrogen” value under setting [2] was 184.6 Å². As for `CC(=O)OC[C@H]1O[C@@](COC(C)=O)(O[C@H]2O[C@H](COC(C)=O)[C@@H](OC(C)=O)[C@H](OC(C)=O)[C@H]2OC(C)=O)[C@@H](OC(C)=O)[C@@H]1OC(C)=O` [Sucrose octaacetate], the “collision cross section in nitrogen” value under setting [2] amounted to 238.1 Å².

`CN1Cc2c(N)cccc2C(c2ccccc2)C1` (stereo not drawn) [Nomifensine]: the “collision cross section in nitrogen” value runs as follows: under setting [3], 155.8 Å²; under setting [4], 156.2 Å². Regarding `O=C(c1ccccc1)c1ccccc1O` [2-Hydroxybenzophenone], the “collision cross section in nitrogen” value under setting [6] is 143.4 Å².

With `O=C(CC(C(=O)OC1CCCCC1)S(=O)(=O)O)OC1CCCCC1` (stereo not drawn) [Dicyclohexyl sodium sulfosuccinate], under setting [6], the “collision cross section in nitrogen” value came to 188.4 Å².

Turning to `CC1(CO)CN(c2ccccc2)NC1=O` (stereo not drawn) [4-(Hydroxymethyl)-4-methyl-1-phenylpyrazolidin-3-one], the “collision cross section in nitrogen” value under setting [5] came out at 143.2 Å². Consider `Oc1ccncc1` [4-Pyridinol], for which the “collision cross section in nitrogen” value is, setting by setting: under setting [3], 116 Å²; under setting [4], 116.2 Å²; under setting [6], 113.9 Å².

`CCNc1nc(NC(C)C)nc(OC)n1` [Atraton]: the “collision cross section in nitrogen” value is, setting by setting: under setting [4], 150.5 Å²; under setting [2], 168.1 Å².

The values are drawn from the supplement of paper PMC12317010.
